The values below come from patent US4273782A, “Inhibition of thromboxane synthetase by 3-(1-Imidazolylalkyl) indoles” (Pfizer Inc., priority 1979, dated 1981).

Where a name gives a salt, the structure may show the parent alone. A value given as a limit tells only on which side of the number the result lay.

For assay [1], the target named is T1, prostacyclin synthetase (Sus scrofa, UniProt A0A5G2QT35).
T1 construct: Pig aorta microsomes; from tissue; host or cells: pig aorta (microsomes)
T1 sequence (A0A5G2QT35 1-497): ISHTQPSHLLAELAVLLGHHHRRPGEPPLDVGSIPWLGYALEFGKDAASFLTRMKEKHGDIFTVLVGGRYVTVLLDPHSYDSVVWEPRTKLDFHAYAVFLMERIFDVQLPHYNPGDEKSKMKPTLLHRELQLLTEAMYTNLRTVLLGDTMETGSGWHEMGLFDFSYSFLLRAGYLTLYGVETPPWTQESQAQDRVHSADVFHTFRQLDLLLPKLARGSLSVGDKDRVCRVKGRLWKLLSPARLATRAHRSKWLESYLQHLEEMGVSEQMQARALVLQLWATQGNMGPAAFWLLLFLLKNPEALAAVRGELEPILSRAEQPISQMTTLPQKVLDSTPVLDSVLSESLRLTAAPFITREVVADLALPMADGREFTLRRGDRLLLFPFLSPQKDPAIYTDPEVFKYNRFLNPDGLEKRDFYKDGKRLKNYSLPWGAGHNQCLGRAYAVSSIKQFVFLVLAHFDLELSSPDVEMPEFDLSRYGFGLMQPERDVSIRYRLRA
The following applies: pre-incubation of the enzyme; cited from earlier work.

The target in assay [2] is T1, prostacyclin synthetase. Put plainly: Prostacyclin (PGI2) synthetase inhibition, pig aorta microsomes, rabbit aorta bioassay. The following applies: test compound pre-incubated with enzyme for 5 minutes, read-out: Molar concentration causing 50% inhibition of prostacyclin synthetase. The format is biochemical. As to the method:
The effect of the compounds of the formula (I) on the thromboxane synthetase enzyme, and the prostacyclin synthetase and cyclooxygenase enzymes has been measured by the following in vitro enzyme assays:
2. Prostacyclin (PGI2) Synthetase
Pig aorta microsomes (Nature, 1976, 263, 663) are incubated (30 sec.: 22° C.) with PGH2 produced as in 1) and aliquots bio-assayed as in 1. […] The test compound is then pre-incubated with the enzyme for 5 minutes, and its ability to prevent the decrease in tension is measured.
The results of these tests are shown in the following Table, which gives the molar concentration of each compound which caused a 50% change in the effect of the relevant enzyme on isometric tension, i.e. caused a 50% inhibition of the action of that enzyme.

The target in another assay is T2, thromboxane synthetase (Homo sapiens, UniProt P24557).
T2 construct: human platelet microsomes; from tissue; host or cells: human blood platelets (microsomes, indomethacin pre-treated)
T2 sequence (P24557 1-533): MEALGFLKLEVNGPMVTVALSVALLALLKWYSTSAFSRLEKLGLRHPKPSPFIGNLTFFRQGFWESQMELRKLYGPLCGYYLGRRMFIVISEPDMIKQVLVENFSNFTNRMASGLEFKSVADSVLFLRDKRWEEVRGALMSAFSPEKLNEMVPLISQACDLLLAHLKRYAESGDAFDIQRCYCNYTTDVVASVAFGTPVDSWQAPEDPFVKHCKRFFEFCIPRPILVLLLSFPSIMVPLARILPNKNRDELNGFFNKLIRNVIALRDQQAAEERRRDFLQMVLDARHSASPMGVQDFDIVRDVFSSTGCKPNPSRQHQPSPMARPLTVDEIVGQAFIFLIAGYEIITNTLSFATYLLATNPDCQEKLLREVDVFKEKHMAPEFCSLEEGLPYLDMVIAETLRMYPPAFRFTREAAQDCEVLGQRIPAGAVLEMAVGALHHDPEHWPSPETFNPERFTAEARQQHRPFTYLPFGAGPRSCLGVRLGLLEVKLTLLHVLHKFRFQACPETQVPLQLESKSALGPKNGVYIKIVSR
Description: Thromboxane A2 (TxA2) synthetase inhibition, human platelet microsomes, rabbit aorta bioassay. The format is biochemical. As to conditions: test compound pre-incubated with enzyme for 5 minutes, read-out: Molar concentration causing 50% inhibition of thromboxane synthetase. As to the method:
3. Thromboxane A2 (TxA2) Synthetase
Indomethacin pre-treated human platelet microsomes (Science, 1976, 193, 163) are incubated (2 min.: 0° C.) with PGH2 (produced as in 1) and aliquots of the reaction mixture superfused over two rabbit aorta spirals which are separated by a delay coil (2 min.). The latter is required to allow the selective decay of the more unstable thromboxane A2 (Proc. Nat. Acad. Sci., 1975, 72, 2994) thereby enabling the separate measurement of increased isometric tension due to the TxA2 formed and the PGH2 remaining. The test compound is pre-incubated with enzyme for 5 minutes, and its ability to inhibit the thromboxane synthetase enzyme is measured as its reduction of the TxA2 component of the isometric tension.

In another assay the test system is cyclo-oxygenase enzyme. As to conditions: cited from earlier work.
The conditions of assay [3]: rabbit; intravenous arachidonic acid; cited from earlier work.
For assay [4], the system named is human blood platelet aggregation. The following applies: human blood platelets; cited from earlier work.
For a further assay, the system named is aggregation of platelets. The following applies: rat, abdominal aorta; cited from earlier work.

As for 15-hydroxy-arachidonic acid, the “prevention of the decrease in PGH2-induced tension (selective PGI2 synthetase inhibitor)” value on prostacyclin synthetase [1] was “prevented completely”.

With `N#CCCn1cc(Cn2ccnc2)c2ccccc21` [Example 1, 1-(2-Cyanoethyl)-3-(1-imidazolylmethyl)indole fumarate], the IC50 at prostacyclin synthetase [2] worked out at 24000 nM; on thromboxane synthetase it was 18 nM.

For the molecule `N#Cc1ccc(Cn2cc(Cn3ccnc3)c3ccccc32)cc1` [Example 4, 1-(4-Cyanobenzyl)-3-(1-imidazolylmethyl)indole], the IC50 came to 2200 nM on prostacyclin synthetase [2] and 4.8 nM at thromboxane synthetase.

As to `CCOC(=O)c1ccc(Cn2cc(Cn3ccnc3)c3ccccc32)cc1` [Example 7, 1-(4-Ethoxycarbonylbenzyl)-3-(1-imidazolylmethyl)indole hemi-fumarate], the IC50 is above 100000 nM on prostacyclin synthetase [2] and 0.16 nM at thromboxane synthetase.

For the molecule `CCOC(=O)Cn1cc(Cn2ccnc2)c2ccccc21` [Example 10, 1-Ethoxycarbonylmethyl-3-(1-imidazolylmethyl)indole], the IC50 is above 100000 nM on prostacyclin synthetase [2] and 12 nM on thromboxane synthetase.

In the case of `O=C(O)CCn1cc(Cn2ccnc2)c2ccccc21` [Example 11, 1-(2-Carboxyethyl)-3-(1-imidazolylmethyl)indole fumarate monohydrate], the IC50 on prostacyclin synthetase [2] is above 100000 nM; on thromboxane synthetase, 0.04 nM.

With `CC(C)c1c(Cn2ccnc2)c2ccccc2n1CCC(=O)O` [Example 13], the IC50 on prostacyclin synthetase [2] was found to be 100000 nM; on thromboxane synthetase it was 2 nM.

For `O=C(O)CCn1c(C2CC2)c(Cn2ccnc2)c2ccccc21` [Example 14, 1-carboxyethyl-2-cyclopropyl-3-(1-imidazolylmethyl)indole], the IC50 at prostacyclin synthetase [2] amounted to 40000 nM; at thromboxane synthetase it was 0.037 nM.

Regarding `O=C(O)CCn1cc(Cn2ccnc2)c2cc(Br)ccc21` [Example 20, 5-bromo-1-(2-carboxyethyl)-3-(1-imidazolylmethyl)indole], on prostacyclin synthetase [2], the IC50 is above 100000 nM.

`O=C(O)Cn1cc(Cn2ccnc2)c2ccccc21` [Example 23, 1-Carboxymethyl-3-(1-imidazolylmethyl)indole]: the IC50 was above 100000 nM on prostacyclin synthetase [2] and 0.8 nM at thromboxane synthetase.

For the molecule `O=C(O)c1ccc(Cn2cc(Cn3ccnc3)c3ccccc32)cc1` [Example 24, 1-(4-Carboxybenzyl)-3-(1-imidazolylmethyl)indole], the IC50 on prostacyclin synthetase [2] was above 100000 nM; on thromboxane synthetase, 0.16 nM.

In the case of `O=C(O)c1cccc(Cn2cc(Cn3ccnc3)c3ccccc32)c1` [Example 25, 1-(3-Carboxybenzyl)-3-(1-imidazolylmethyl)indole], the IC50 on prostacyclin synthetase [2] is above 100000 nM; on thromboxane synthetase, 2.4 nM.

Turning to `NC(=O)Cn1cc(Cn2ccnc2)c2ccccc21` [Example 27, 1-Carbamoylmethyl-3-(1-imidazolylmethyl)indole], the IC50 on prostacyclin synthetase [2] worked out at 100000 nM; at thromboxane synthetase, 140 nM.

On to `CC(C)c1c(Cn2ccnc2)c2ccccc2n1CCC(N)=O` [Example 28, 1-(2-Carbamoylethyl)-2-isopropyl-3-(1-imidazolylmethyl)indole], for which the IC50 at prostacyclin synthetase [2] was determined as 70000 nM; at thromboxane synthetase, 6 nM.

For `NC(=O)c1ccc(Cn2cc(Cn3ccnc3)c3ccccc32)cc1` [Example 38, 1-(4-Carbamoylbenzyl)-3-(1-imidazolylmethyl)indole], the IC50 on thromboxane synthetase was determined as 130 nM.

In the case of `c1ccc2c(c1)c(Cn1ccnc1)cn2CCc1nnn[nH]1` [Example 42, 1-[2-(5-Tetrazolyl)ethyl]-3-(1-imidazolylmethyl)indole], the IC50 on prostacyclin synthetase [2] stood at 45000 nM; on thromboxane synthetase, 0.034 nM.

As for `CNC(=O)NCCCn1cc(Cn2ccnc2)c2ccccc21` [Example 46, N-Methyl-N'-[3-[3-(imidazol-1-ylmethyl)indol-1-yl]propyl]urea], the IC50 on thromboxane synthetase was 2.1 nM.

`O=C(NCCCn1cc(Cn2ccnc2)c2ccccc21)Nc1ccccc1` [Example 47, N-Phenyl-N'-[3-[3-(imidazol-1-ylmethyl)indol-1-yl]propyl]urea]: the IC50 worked out at 40000 nM at prostacyclin synthetase [2] and 5.5 nM on thromboxane synthetase.

As for `O=S(=O)(NCCCn1cc(Cn2ccnc2)c2ccccc21)c1ccccc1` [Example 48, 1-(3-Benzenesulphonylaminopropyl)-3-(1-imidazolylmethyl)indole], the IC50 at prostacyclin synthetase [2] was 100000 nM; at thromboxane synthetase, 1 nM.

As for `CC(=O)Oc1ccccc1C(=O)O` [aspirin], in the assay on cyclo-oxygenase enzyme, the “effect on prostacyclin and thromboxane A2 levels” value was “reduce both the prostacyclin and thromboxane A2 levels”; the “inhibition of the cyclo-oxygenase enzyme” value is “inhibit the cyclo-oxygenase enzyme”. Further, the “protection from the lethal effect of arachidonic acid injection” value in assay [3] is “protect the rabbit from the lethal effect of the injection”. Also, the “inhibitory activity in vitro against a variety of aggregating agents” value in assay [4] is on record as “show inhibitory activity in vitro”.

With `O=C1C(CC[S+]([O-])c2ccccc2)C(=O)N(c2ccccc2)N1c1ccccc1` (centres unmarked) [sulphinpyrazone], the “protection from the lethal effect of arachidonic acid injection” value in assay [3] is on record as “protect the rabbit from the lethal effect of the injection”. The “inhibitory activity in vitro against a variety of aggregating agents” value in assay [4] is “show inhibitory activity in vitro”. Besides, the “prevention of aggregation of platelets in an extra corporeal loop” value in the assay with aggregation of platelets is given as “prevent the aggregation of platelets”.
